Where a name gives a salt, the structure may show the parent alone. Read-outs that look alike come from different tables or passages of the source.
Assays:
[1] = osmotic pressure of the drug; format: physicochemical
[2] = solubility of the pharmaceutical agent in water; format: physicochemical
Description: As defined herein, the solubility of a pharmaceutical agent is determined by adding the pharmaceutical agent to stirred or agitated de-ionized water maintained in a constant temperature bath at a temperature of 37° C. until no more pharmaceutical agent dissolves. The resulting solution saturated with the pharmaceutical agent is then filtered, typically under pressure through a 0.8-micron Millipore filter, and the concentration of the pharmaceutical agent in the solution is measured by any appropriate analytical method including gravimetric, ultraviolet spectrophometry, chromatography, and the like. The solubility of the pharmaceutical agent is measured at saturated concentration.

CNC(=C[N+](=O)[O-])NCCSCc1ccc(CN(C)C)o1.Cl [Ranitidine HCl, ranitidine hydrochloride]
osmotic pressure of the drug [1]: 95 atmospheres

CN1CCN(CCCN2c3ccccc3Sc3ccc(Cl)cc32)CC1 [prochlorperazine base]
solubility in water (aqueous solubility) [2]: 0.1 to 1 mg per milliliter

CN1CCN(CCCN2c3ccccc3Sc3ccc(Cl)cc32)CC1 [prochlorperazine edisilate]
solubility in water (aqueous solubility) [2]: about 500 mg per milliliter

CCC(=O)O[C@](Cc1ccccc1)(c1ccccc1)[C@H](C)CN(C)C [propoxyphene base]
solubility in water (in words) [2]: only slightly soluble

CCC(=O)O[C@](Cc1ccccc1)(c1ccccc1)[C@H](C)CN(C)C [propoxyphene hydrochloride]
solubility in water (in words) ([2]; hydrochloride): freely soluble

Source: US20050260264A1, “Dosage form for delivery of multiple drug forms” (priority 2004, published 2005)
